In paper PMC7377474, “Preclinical characterization of CPL302-253, a selective inhibitor of PI3Kδ, as the candidate for the inhalatory treatment and prevention of Asthma” (PLoS ONE, 2020):
Where two headings read alike, the source gives them in different places.

Tests used:
PI3Kβ = PI3Kβ (Homo sapiens, UniProt P42338); assay: KINOMEScan competitive binding assay, Kd; set-up: purchased Discoverex (KINOMEscan service)
Protocol: (§1) The inhibitor-kinase binding affinity was assessed in KINOMEscan™ assay (Discoverex) according to service provider’s protocol. In brief, in this binding assay the studied compound in solution is incubated with DNA-tagged kinase and kinase active-site directed ligand bound to the beads. The compound competes for binding to kinase with the immobilized ligand. After incubation beads are removed from the solution and kinase bound to ligand is quantified by qPCR. The strength of compound binding is determined based on its ability to block kinase-ligand binding. 11-point 3-fold serial dilution of CPL302-253 was used in order to determine its binding constants (Kd) against different isotypes of class I PI3K. The single concentration of CPL302-253 was used in order to determine its specificity in abroad panel of 468 human kinases. The measure of compounds affinity to each kinase in the panel was the percentage of kinase activity inhibition by tested ligand in comparison to the control.

PI3Kγ = PI3Kγ (Homo sapiens, UniProt P48736); assay: KINOMEScan competitive binding assay, Kd; set-up: purchased Discoverex (KINOMEscan service)
Protocol: as §1

PI3Kα = PI3Kα (Homo sapiens, UniProt P42336); assay: KINOMEScan competitive binding assay, Kd; set-up: purchased Discoverex (KINOMEscan service)
Protocol: as §1

[1] = Protocol: Unless otherwise stated, all chemicals and materials were ordered from Merck Life Science. Each biological replicate was prepared in triplicates. […] The negative control contained buffer instead of NADPH solution. Samples were collected at 0, 10, 20 and 40 min or 0 and 40 min for the negative and double negative controls. The reaction was stopped by protein precipitation in 2 volumes of ice cold MeOH with 200 nM imipramine (as an internal standard for LC-MS analysis). Then, the extract was mixed (1 min, 1000 rpm), filtered through 0.22 μm filter on 96-well plate vacuum manifold and subjected to LC-MS analysis. Metabolic stability in mouse and human cryopreserved hepatocytes was performed in suspension on 96-well tissue culture plates at 1 μM concentration in Williams medium E with CM4000 supplements (ThermoFisher Scientific). Cells were thawed according to the manufacturers manual, counted and preincubated for 30 min in a CO2 incubator (5% CO2, 37 °C, 5 · 10^4 cells/well). For the negative control cells were thermally inactivated for 5 min at 95 °C. Similarly to microsomal stability, experiments were done in technical triplicates, with the additional time point at 80’. Samples for LC-MS analysis were prepared as described for microsomes. Intrinsic clearance (Clint) was calculated using the rate of compound disappearance from the reaction. The elimination rate constant (k) was calculated as a module of slope of the linear regression from ln [substrate] vs time. Then, clearance was calculated as Clint = k/d, where d is protein or cell density for microsomal and hepatocyte stability, respectively.
The mobile phases were (A) 10 mM ammonium acetate pH 5.4 in water and (B) methanol. Samples were eluted using a timed, linear gradient from 30% B at 0 min to 90% B at 1.5 min then a hold 90% B to 2.5 min, after it back to initial 30% B to 2.6 min. The columns was equilibrated for up to 5 min. The flow rate was 0.5 mL/min. The injection volume was 3 μL.

basophils = assay: Basophils activation (Flow CAST Basophil Activation Test); type: cell-based, human; conditions: for IC50: anti-FcεRI antibody; for IgE (basophil activation, Fig 4D): concentration 0 = 100
Protocol: The study was performed using Flow CAST Basophil Activation Test (Buhlmann) according to manufacturer’s protocol with modifications. In brief to U bottom 96-well plate 50 μl of stimulus solution (stimulating antibody specific for the high-affinity IgE receptor FcεRI) or assay bufferwas added. Subsequently to some wells, 50 μl of inhibitor at different concentrations in assay buffer was added. In the next step 50 μl of EDTA collected fresh human blood was added to each well followed by 50 μl of staining reagent (diluted 2:3 in assay buffer). The cells were incubated for 25 min at 37°Cin humidified incubator in the presence of 5% CO2. After incubation cells were centrifuged and erythrocytes were lysed with pre-warmed (18–28°C) Lysing Reagent. After centrifugation cells were suspended in Wash Buffer and analysed by FACSCalibur. Data were analysed using CellQuestPro and FlowJo software.

[2] = tested on: Normal Human Bronchial Epithelial (NHBE) cells; assay: in vitro; type: cell-based; conditions: 48 h
Protocol: (§2) The study was performed by Cyprotex according to service provider’s protocol. In brief NHBE cells were plated on 96-well plate. The cells were dosed with test compound at 0.0457, 0.137, 0.412, 1.24, 3.7, 11.1, 33.3, 100 μM and incubated for 48 h. The cells were loaded with dye or antibody relevant for each health marker and scanned using fluorescent cell imager. The following parameters were studied: cell count, nuclear size, DNA structure, mitochondrial mass, mitochondrial membrane potential, oxidative stress, glutathione content. The baseline for each parameter was determined based on vehicle control sample. The software calculates the percentage of cells that are low or high responders (depending on the biological significance of a particular readout). The vehicle control wells are then used to determine significance limits for wells that have a greater than expected fraction of low or high responders. The minimum effective concentration was determined from the lowest concentration whose mean value exceeds the significance level and provided either a clear dose-response relationship or at least two consecutive concentration points past the significance level.

in vitro = type: cell-based; conditions: human
Protocol: as §2

PI3Kα, sequence (P42336 whole entry): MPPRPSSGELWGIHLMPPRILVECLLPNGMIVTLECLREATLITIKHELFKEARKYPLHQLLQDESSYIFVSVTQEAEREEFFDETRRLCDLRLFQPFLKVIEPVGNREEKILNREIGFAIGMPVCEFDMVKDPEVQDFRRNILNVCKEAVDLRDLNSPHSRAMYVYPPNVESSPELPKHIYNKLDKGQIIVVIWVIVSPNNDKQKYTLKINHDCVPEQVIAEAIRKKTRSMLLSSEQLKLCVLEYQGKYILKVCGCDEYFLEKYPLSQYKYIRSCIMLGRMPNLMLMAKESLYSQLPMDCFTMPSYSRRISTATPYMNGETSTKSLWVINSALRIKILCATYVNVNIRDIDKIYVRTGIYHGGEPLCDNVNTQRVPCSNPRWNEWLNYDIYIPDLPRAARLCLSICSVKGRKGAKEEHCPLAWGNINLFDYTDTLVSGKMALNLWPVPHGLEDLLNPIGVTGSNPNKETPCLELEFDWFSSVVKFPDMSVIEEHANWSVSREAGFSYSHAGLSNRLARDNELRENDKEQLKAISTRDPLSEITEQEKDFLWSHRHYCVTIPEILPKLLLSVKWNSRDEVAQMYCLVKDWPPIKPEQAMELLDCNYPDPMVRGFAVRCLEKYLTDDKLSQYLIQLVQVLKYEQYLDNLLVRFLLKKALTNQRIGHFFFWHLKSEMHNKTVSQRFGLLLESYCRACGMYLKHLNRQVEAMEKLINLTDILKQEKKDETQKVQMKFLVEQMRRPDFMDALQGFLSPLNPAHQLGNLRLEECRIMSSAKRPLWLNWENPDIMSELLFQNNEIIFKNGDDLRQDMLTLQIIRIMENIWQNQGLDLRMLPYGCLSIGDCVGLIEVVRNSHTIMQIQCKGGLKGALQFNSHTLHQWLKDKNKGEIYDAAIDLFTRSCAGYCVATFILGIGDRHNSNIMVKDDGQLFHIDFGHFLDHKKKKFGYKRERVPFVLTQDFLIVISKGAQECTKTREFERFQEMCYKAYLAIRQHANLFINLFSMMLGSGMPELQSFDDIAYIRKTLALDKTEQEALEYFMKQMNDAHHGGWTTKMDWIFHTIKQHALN
PI3Kβ, sequence (P42338 whole entry): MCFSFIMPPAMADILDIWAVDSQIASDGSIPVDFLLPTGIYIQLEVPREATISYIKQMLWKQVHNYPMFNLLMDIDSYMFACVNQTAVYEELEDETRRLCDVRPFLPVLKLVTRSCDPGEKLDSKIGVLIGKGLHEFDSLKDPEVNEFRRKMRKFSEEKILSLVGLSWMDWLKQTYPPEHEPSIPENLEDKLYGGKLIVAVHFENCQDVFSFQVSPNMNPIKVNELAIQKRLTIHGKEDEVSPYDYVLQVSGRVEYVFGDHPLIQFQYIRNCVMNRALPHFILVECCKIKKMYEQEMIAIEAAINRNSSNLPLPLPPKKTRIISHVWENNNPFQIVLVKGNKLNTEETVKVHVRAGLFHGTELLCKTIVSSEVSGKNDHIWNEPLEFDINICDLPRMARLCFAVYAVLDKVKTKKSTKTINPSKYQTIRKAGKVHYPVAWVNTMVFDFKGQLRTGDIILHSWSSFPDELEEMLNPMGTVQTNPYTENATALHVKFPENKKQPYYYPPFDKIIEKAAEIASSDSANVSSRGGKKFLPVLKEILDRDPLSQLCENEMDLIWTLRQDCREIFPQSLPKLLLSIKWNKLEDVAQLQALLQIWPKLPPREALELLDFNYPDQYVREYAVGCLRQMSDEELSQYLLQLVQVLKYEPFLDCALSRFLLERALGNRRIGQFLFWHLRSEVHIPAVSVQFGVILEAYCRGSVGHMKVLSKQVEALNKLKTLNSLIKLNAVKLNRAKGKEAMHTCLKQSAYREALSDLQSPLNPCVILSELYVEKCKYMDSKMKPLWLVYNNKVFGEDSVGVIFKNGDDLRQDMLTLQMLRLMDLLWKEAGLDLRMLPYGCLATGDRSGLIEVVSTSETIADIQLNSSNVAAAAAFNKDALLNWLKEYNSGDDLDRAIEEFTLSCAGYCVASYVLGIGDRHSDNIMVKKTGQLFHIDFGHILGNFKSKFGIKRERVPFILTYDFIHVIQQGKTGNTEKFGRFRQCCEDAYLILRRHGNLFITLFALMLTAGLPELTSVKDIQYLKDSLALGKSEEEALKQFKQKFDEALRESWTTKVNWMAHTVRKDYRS
PI3Kγ, sequence (P48736 whole entry): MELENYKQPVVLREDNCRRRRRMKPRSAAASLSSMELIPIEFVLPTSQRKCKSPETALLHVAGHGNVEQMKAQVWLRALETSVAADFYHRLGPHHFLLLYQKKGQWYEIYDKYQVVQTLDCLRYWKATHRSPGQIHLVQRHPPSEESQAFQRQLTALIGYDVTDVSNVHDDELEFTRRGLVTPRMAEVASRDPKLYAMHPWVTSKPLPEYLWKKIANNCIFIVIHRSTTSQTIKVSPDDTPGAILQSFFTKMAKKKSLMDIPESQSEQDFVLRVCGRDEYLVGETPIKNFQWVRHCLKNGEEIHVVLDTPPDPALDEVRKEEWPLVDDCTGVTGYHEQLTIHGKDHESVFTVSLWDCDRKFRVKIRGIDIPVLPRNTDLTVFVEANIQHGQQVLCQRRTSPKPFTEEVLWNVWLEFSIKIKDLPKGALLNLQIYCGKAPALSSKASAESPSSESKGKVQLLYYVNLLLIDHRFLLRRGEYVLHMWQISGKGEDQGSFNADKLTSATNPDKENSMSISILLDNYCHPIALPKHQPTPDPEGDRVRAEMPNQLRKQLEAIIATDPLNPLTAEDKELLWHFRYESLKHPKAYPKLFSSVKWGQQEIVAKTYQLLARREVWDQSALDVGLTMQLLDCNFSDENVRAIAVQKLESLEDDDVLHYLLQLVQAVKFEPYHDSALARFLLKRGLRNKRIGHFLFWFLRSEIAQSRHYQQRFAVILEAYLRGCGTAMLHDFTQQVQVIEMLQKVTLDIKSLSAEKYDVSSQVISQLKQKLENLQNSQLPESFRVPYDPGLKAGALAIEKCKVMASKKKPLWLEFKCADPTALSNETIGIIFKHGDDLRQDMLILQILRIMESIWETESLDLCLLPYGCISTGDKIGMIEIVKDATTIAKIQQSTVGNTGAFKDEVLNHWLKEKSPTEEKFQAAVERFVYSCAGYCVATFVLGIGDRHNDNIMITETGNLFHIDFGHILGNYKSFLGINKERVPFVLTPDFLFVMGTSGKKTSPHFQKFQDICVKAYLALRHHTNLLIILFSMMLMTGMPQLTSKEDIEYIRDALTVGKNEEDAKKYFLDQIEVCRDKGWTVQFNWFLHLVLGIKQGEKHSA

Question: With `CC(C)(C)N1CCN(Cc2cc3nc(-c4cncc5[nH]ccc45)cc(N4CCOCC4)n3n2)CC1` [CPL302-253] as the molecule, how does the Kd (PI3Kβ) read?
Answer: 0.39 µM

Question: What about the Kd (PI3Kγ) of the same molecule?
Answer: 4.8 µM

Question: And the Kd (PI3Kα)?
Answer: 1.9 µM

Question: And the “degradation in human hepatocytes” value [1]?
Answer: degradation was not observed at all

Question: What about the “Clint, times lower when compared to verapamil” value ([1]; CD-1, mouse, 1 μM) of the same molecule?
Answer: ~30 times

Question: What about the “Clint (Fig 5D), single replicates” value ([1]; human, 1 μM) of the same molecule?
Answer: 0

Question: And the “Clint, times lower when compared to verapamil” value ([1]; human, 1 μM)?
Answer: ~70 times

Question: What about the “degradation, fold slower as compared to verapamil” value ([1]; mouse, 1 μM) of the same molecule?
Answer: 11 fold

Question: And the IC50 (basophils; 25 min, human whole blood, 25 min, read-out: IC50 CD63 expression after basophils activation)?
Answer: 0.036 µM

Question: And the “IgE (basophil activation, Fig 4D)” value (basophils; Concentration 1 (unit not given))?
Answer: 93.65

Question: What about the “IgE (basophil activation, Fig 4D)” value (basophils; Concentration 3 (unit not given)) of the same molecule?
Answer: 103.18

Question: What about the “IgE (basophil activation, Fig 4D)” value (basophils; Concentration 10 (unit not given)) of the same molecule?
Answer: 85.97

Question: And the “IgE (basophil activation, Fig 4D)” value (basophils; Concentration 33 (unit not given))?
Answer: 51.03

Question: And the “IgE (basophil activation, Fig 4D)” value (basophils; Concentration 100 (unit not given))?
Answer: 22

Question: What about the “IgE (basophil activation, Fig 4D)” value (basophils; Concentration 333 (unit not given)) of the same molecule?
Answer: 3.87

Question: What about the “IgE (basophil activation, Fig 4D)” value (basophils; Concentration 1000 (unit not given)) of the same molecule?
Answer: -1.11

Question: What about the “IgE (basophil activation, Fig 4D)” value (basophils; Concentration 3333 (unit not given)) of the same molecule?
Answer: 5.06

Question: And the “IgE (basophil activation, Fig 4D)” value (basophils; Concentration 10000 (unit not given))?
Answer: -1.49

Question: What about the IC50 (basophils; Homo sapiens, basophil CD63 expression, read-out: IC50 (Fig 4D, printed in the picture)) of the same molecule?
Answer: 0.0362 µM

Question: What about the AC50 [2] of the same molecule?
Answer: > 100 µM

Question: What about the “MEC Cell count” value [2] of the same molecule?
Answer: 50.6 µM

Question: And the “MEC DNA structure” value [2]?
Answer: 24.4 µM

Question: And the “MEC Glutathione content” value [2]?
Answer: 10.6 µM

Question: What about the “MEC Mitochondrial mass” value [2] of the same molecule?
Answer: 20.8 µM

Question: And the “MEC Mitochondrial membrane potential” value [2]?
Answer: 22.8 µM

Question: What about the “MEC Nuclear size” value [2] of the same molecule?
Answer: 75.3 µM

Question: What about the “MEC Oxidative stress” value [2] of the same molecule?
Answer: 16.1 µM

Question: And the “lowest concentration influencing any cell health parameter” value [2]?
Answer: ≥ 10 µM

Question: And the AC50 at 48 h (in vitro)?
Answer: > 100 µM
